Measurements as given in paper PMC5344255, “Design, Synthesis and Biochemical Evaluation of Novel Selective Estrogen Receptor Ligand Conjugates Incorporating an Endoxifen-Combretastatin Hybrid Scaffold” (Biomedicines, 2016).

Columns and labels:
Assay type in all cases: cell-based
[1] = system: MDA-MB-231 human breast cancer cells; assay: MTT assay for antiproliferative effects in MDA-MB-231; details: MDA-MB-231, MTT assay
Experimental: The human breast carcinoma cell line, MCF-7, was purchased from the European Collection of Animal Cell Cultures (ECACC). The cells were maintained in MCF-7 complete medium; consisting of Eagle’s Minimum Essential Medium (MEM) supplemented with 10% (v/v) Foetal Bovine Serum (FBS), 2 mM L-glutamine, 100 μg/mL penicillin/streptomycin and 1% (v/v) non-essential amino acids. […] The human breast carcinoma cell line, MDA, was purchased from the European Collection of Animal Cell Cultures (ECACC). The cells were maintained in MDA complete medium; consisting of Dulbecco’s Modified Eagle’s Medium (D-MEM) supplemented with 10% (v/v) Foetal Bovine Serum (FBS), 2 mM L-glutamine, 100 μg/mL penicillin/streptomycin. […] The MTT assay was performed according to the reported protocol. The tetrazolium salt, 3-(4,5-dimethylthiazol-2-yl)-2,5-diphenyltetrazolium bromide (MTT) is taken up only by metabolically active cells and cleaved to form a formazan dye by mitochondrial dehydrogenases. […] Graphs of percentage cell viability versus concentration of the subject compound were processed using PRISM [31].

[2] = system: MCF-7 human breast cancer cells; assay: Lactate dehydrogenase (LDH) cytotoxicity assay in MCF-7; details: % cell lysis at 10 µM
Experimental: (§1) In this assay, the release of cytoplasmic lactate dehydrogenase (LDH) is used as a measure of cell lysis. MCF-7 and MDA-MB-231 cells were seeded at a density of 1 × 10^4 cells/well in a 96-well plate and incubated for 24 h. The cells were then dosed with 2 μL volumes of the test compounds, over the concentration range 1 nM–50 μM. Cytotoxicity was determined using the CytoTox 96 nonradioactive cytotoxicity assay (Promega, Madison, WI, USA) following the manufacturer’s protocol.

[3] = system: MDA-MB-231 human breast cancer cells; assay: Lactate dehydrogenase (LDH) cytotoxicity assay in MDA-MB-231; details: % cell lysis at 10 μM
Experimental: as §1

[4] = system: MCF-7 human breast cancer cells; assay: MTT assay for antiproliferative effects in MCF-7; details: for inhibition at 10 µM: MCF7, MCF-7, read-out: growth inhibition
Experimental: The human breast carcinoma cell line, MCF-7, was purchased from the European Collection of Animal Cell Cultures (ECACC). The cells were maintained in MCF-7 complete medium; consisting of Eagle’s Minimum Essential Medium (MEM) supplemented with 10% (v/v) Foetal Bovine Serum (FBS), 2 mM L-glutamine, 100 μg/mL penicillin/streptomycin and 1% (v/v) non-essential amino acids. Cell cultures were maintained at 37 °C under a humidified atmosphere of 5% CO2/95% O2. The human breast carcinoma cell line, MDA, was purchased from the European Collection of Animal Cell Cultures (ECACC). The cells were maintained in MDA complete medium; consisting of Dulbecco’s Modified Eagle’s Medium (D-MEM) supplemented with 10% (v/v) Foetal Bovine Serum (FBS), 2 mM L-glutamine, 100 μg/mL penicillin/streptomycin. Cell cultures were maintained at 37 °C under a humidified atmosphere of 5% CO2/95% O2. The MTT assay was performed according to the reported protocol. The tetrazolium salt, 3-(4,5-dimethylthiazol-2-yl)-2,5-diphenyltetrazolium bromide (MTT) is taken up only by metabolically active cells and cleaved to form a formazan dye by mitochondrial dehydrogenases. Assays where repeated in three experiments performed in triplicate (unless otherwise stated) and reported results represent the mean value ± standard error mean. Graphs of percentage cell viability versus concentration of the subject compound were processed using PRISM [31].

[5] = Homo sapiens, MCF7, MCF-7, MTT assay, mean of at least three experiments in triplicate
[6] = Homo sapiens, MCF7, MCF-7, MTT assay, values in nM
[7] = MCF-7, MTT assay, mean of at least three experiments in triplicate

| IC50 [1] | IC50 [4, 5] | Compound | % Cell Death at 10 μM [2] | % Cell Death at 10 μM [3] | also measured |
| --- | --- | --- | --- | --- | --- |
| 30600 nM | 87 nM | CCC(=C(c1ccc(O)cc1)c1ccc(OCCN(C)C(=O)/C(=C/c2ccc(OC)cc2)c2cc(OC)c(OC)c(OC)c2)cc1)c1ccccc1 (mixture of isomers) [Compound 29, (E)-N-(2-{4-[(E/Z)-1-(4-Hydroxyphenyl)-2-phenylbut-1-enyl]phenoxy}-ethyl)-3-(4-methoxyphenyl)-N-methyl-2-(3,4,5-trimethoxyphenyl)acrylamide] | 12% | 2% | – |
| 6290 nM | 43 nM | CCC(=C(c1ccc(O)cc1)c1ccc(OCCN(C)C(=O)/C(=C/c2ccc(OC)cc2)c2cc(OC)c(OC)c(OC)c2)cc1)c1ccc(O)cc1 (mixture of isomers) [Compound 30, (E)-N-(2-{4-[(E/Z)-1,2-Bis-(4-hydroxyphenyl)but-1-enyl]phenoxy}ethyl)-3-(4-methoxyphenyl)-N-methyl-2-(3,4,5-trimethoxyphenyl)acrylamide] | 19% | 7% | – |
| 5230 nM | 1470 nM | CCC(=C(c1ccc(O)cc1)c1ccc(OCCN(C)C(=O)/C(=C/c2ccc3c(c2)OCO3)c2ccc(OC)cc2)cc1)c1ccccc1 (mixture of isomers) [Compound 33, (E)-3-Benzo[1,3]dioxol-5-yl-N-(2-{4-[(E/Z)-1-(4-hydroxyphenyl)-2-phenylbut-1-enyl]phenoxy}ethyl)-2-(4-methoxyphenyl)-N-methylacrylamide] | 8% | 0% | – |
| 680 nM | 49 nM | CCC(=C(c1ccc(O)cc1)c1ccc(OCCN(C)C(=O)/C(=C/c2ccc3c(c2)OCO3)c2ccc(OC)cc2)cc1)c1ccc(O)cc1 (mixture of isomers) [Compound 34, (E)-3-Benzo[1,3]dioxol-5-yl-N-(2-{4-[(E/Z)-1,2-bis-(4-hydroxyphenyl)but-1-enyl]phenoxy}ethyl)-2-(4-methoxyphenyl)-N-methylacrylamide] | 6% | 16% | – |
| 2160 nM | 1510 nM | CCC(=C(c1ccc(O)cc1)c1ccc(OCCN(C)C(=O)/C(=C/c2ccc3ccccc3c2)c2cc(OC)c(OC)c(OC)c2)cc1)c1ccccc1 (mixture of isomers) [Compound 35, (E)-N-(2-{4-[(E/Z)-1-(4-Hydroxyphenyl)-2-phenylbut-1-enyl]phenoxy}ethyl)-N-methyl-3-naphthalen-2-yl-2-(3,4,5-trimethoxyphenyl) acrylamide] | 0% | 0% | – |
| 4320 nM | 3620 nM | CCC(=C(c1ccc(O)cc1)c1ccc(OCCN(C)C(=O)/C(=C/c2ccc3ccccc3c2)c2cc(OC)c(OC)c(OC)c2)cc1)c1ccc(O)cc1 (mixture of isomers) [Compound 36, (E)-N-(2-{4-[(E/Z)-1,2-Bis-(4-hydroxyphenyl)but-1-enyl]phenoxy}ethyl)-N-methyl-3-naphthalen-2-yl-2-(3,4,5-trimethoxyphenyl)acrylamide] | 3% | 0% | IC50 [4, 6]: 1.51 nM |
| – | 1750 nM | CCC(=C(c1ccc(O)cc1)c1ccc(OCCN(C)C(=O)/C(=C/c2ccc(C)cc2)c2cc(OC)c(OC)c(OC)c2)cc1)c1ccccc1 (mixture of isomers) [Compound 37, (E)-N-(2-{4-[(E/Z)-1-(4-Hydroxyphenyl)-2-phenylbut-1-enyl]phenoxy}ethyl)-N-methyl-3-p-tolyl-2-(3,4,5-trimethoxyphenyl)acrylamide] | 2% | – | IC50 [4, 6]: 3.62 nM |
| – | 372 nM | CCC(=C(c1ccc(O)cc1)c1ccc(OCCN(C)C(=O)/C(=C/c2ccc(C)cc2)c2cc(OC)c(OC)c(OC)c2)cc1)c1ccc(O)cc1 (mixture of isomers) [Compound 38, (E)-N-(2-{4-[(E/Z)-1,2-Bis-(4-hydroxyphenyl)but-1-enyl]phenoxy}ethyl)-N-methyl-3-p-tolyl-2-(3,4,5-trimethoxyphenyl)acrylamide] | 12% | – | – |
| – | 790 nM | CCC(=C(c1ccc(O)cc1)c1ccc(OCCN(C)C(=O)/C(=C/c2ccc(SC)cc2)c2cc(OC)c(OC)c(OC)c2)cc1)c1ccccc1 (mixture of isomers) [Compound 39, (E)-N-(2-{4-[(E/Z)-1-(4-Hydroxyphenyl)-2-phenylbut-1-enyl]phenoxy}ethyl)-N-methyl-3-(4-methylsulfanylphenyl)-2-(3,4,5-trimethoxyphenyl) acrylamide] | 3% | – | – |
| – | 64 nM | CCC(=C(c1ccc(O)cc1)c1ccc(OCCN(C)C(=O)/C(=C/c2ccc(SC)cc2)c2cc(OC)c(OC)c(OC)c2)cc1)c1ccc(O)cc1 (mixture of isomers) [Compound 40, (E)-N-(2-{4-[(E/Z)-1,2-Bis-(4-hydroxyphenyl)but-1-enyl]phenoxy}ethyl)-N-methyl-3-(4-methylsulfanylphenyl)-2-(3,4,5-trimethoxyphenyl)acrylamide] | 2% | – | – |
| > 50000 nM | 1030 nM | CCC(=C(c1ccc(O)cc1)c1ccc(OCCN(C)C(=O)/C(=C/c2ccc(Br)cc2)c2cc(OC)c(OC)c(OC)c2)cc1)c1ccccc1 (mixture of isomers) [Compound 41, (E)-3-(4-Bromophenyl)-N-(2-{4-[(E/Z)-1-(4-hydroxyphenyl)-2-phenylbut-1-enyl]phenoxy}ethyl)-N-methyl-2-(3,4,5-trimethoxyphenyl)acrylamide] | 5% | 0% | – |
| 18000 nM | – | CC/C(=C(\c1ccc(O)cc1)c1ccc(OCCN(C)C)cc1)c1ccccc1 [4-Hydroxytamoxifen, reference compound] | – | 0% | – |
| – | 120 nM | COc1ccc(/C=C(/C(=O)O)c2cc(OC)c(OC)c(OC)c2)cc1O [Compound 13] | – | – | – |
| – | < 10000 nM | COc1ccc(/C=C(/C(=O)O)c2cc(OC)c(OC)c(OC)c2)cc1 [Compound 14] | – | – | IC50 [4, 7]: 7800 nM |
| – | > 50000 nM | COc1ccc(/C(=C\c2cc(OC)c(OC)c(OC)c2)C(=O)O)cc1 [Compound 23] | – | – | – |
| – | – | COc1ccc(/C(=C\c2ccc3c(c2)OCO3)C(=O)O)cc1 [Compound 25] | – | – | IC50 [4, 7]: > 50000 nM |
| – | > 50000 nM | COc1ccc(/C(=C\c2cc(OC)c(OC)c(OC)c2)C(=O)N2CCCC2)cc1 [Compound 48, (E)-2-(4-methoxyphenyl)-1-(pyrrolidin-1-yl)-3-(3,4,5-trimethoxyphenyl)prop-2-en-1-one] | – | – | – |
| – | > 50000 nM | COc1ccc(/C=C(/C(=O)N2CCCCC2)c2cc(OC)c(OC)c(OC)c2)cc1O [Compound 49, (E)-3-(3-hydroxy-4-methoxyphenyl)-1-(piperidin-1-yl)-2-(3,4,5-trimethoxyphenyl)prop-2-en-1-one] | – | – | – |
| – | > 50000 nM | COc1ccc(/C=C(/C(=O)N2CCCC2)c2cc(OC)c(OC)c(OC)c2)cc1 [Compound 52, (E)-3-(4-Methoxyphenyl)-1-(pyrrolidin-1-yl)-2-(3,4,5-trimethoxyphenyl)prop-2-en-1-one] | – | – | – |
| – | – | COc1ccc(/C=C(/C(=O)N2CCCCC2)c2cc(OC)c(OC)c(OC)c2)cc1 [Compound 53, (E)-3-(4-Methoxyphenyl)-1-(piperidin-1-yl)-2-(3,4,5-trimethoxyphenyl)prop-2-en-1-one] | – | – | inhibition at 10 µM ([4]; Homo sapiens): 35% |
| – | – | COc1ccc(/C=C(/C(=O)N2CCCCC2)c2cc(OC)c(OC)c(OC)c2)cc1N [Compound 55, (E)-3-(3-Amino-4-methoxyphenyl)-1-(piperidin-1-yl)-2-(3,4,5-trimethoxyphenyl)prop-2-en-1-one] | – | – | inhibition at 10 µM ([4]; Homo sapiens): 34% |

| Compound | IC50 [1] | IC50 [4, 5] | % Cell Death at 10 μM [2] | % Cell Death at 10 μM [3] | also measured |
| --- | --- | --- | --- | --- | --- |
| COc1ccc(/C=C(/C(=O)O)c2cc(OC)c(OC)c(OC)c2)cc1F [Compound 15] | – | 55100 nM | – | – | – |
| COc1ccc(/C=C(/C(=O)N2CCCC2)c2cc(OC)c(OC)c(OC)c2)cc1N [Compound 54, (E)-3-(3-Amino-4-methoxyphenyl)-1-(pyrrolidin-1-yl)-2-(3,4,5-trimethoxyphenyl)prop-2-en-1-one] | – | > 50000 nM | – | – | – |
